Data published in patent publication US6358885B1, “Substituted phenylheterocyclic herbicides” (Mississippi State University, priority 1992, dated 2002).

Experiments:
waterchestnut = experiment: Test D paddy water application plant response rating 0 to 100; assay type: in vivo, Eleocharis spp.; details: 0 to 100 scale, approx. 21 days
Excerpt: (§1) Plastic pots were partially filled with silt loam soil. The soil was then saturated with water. […] After planting, water levels were raised to 3 cm above the soil surface and maintained at this level throughout the test. Chemical treatments were formulated in a non-phytotoxic solvent and applied directly to the paddy water. Treated plants and controls were maintained in a greenhouse for approximately 21 days, after which all species were compared to controls and visually evaluated. […] A dash (-) response means no test result.

Japonica rice [1] = experiment: as above; assay type: in vivo, Oryza sativa; details: 0 to 100 scale, approx. 21 days
Excerpt: as §1

Japonica rice [2] = experiment: Test E paddy water application plant response rating 0 to 100; assay type: in vivo, oryza sativa; details: Flood, 0 to 100 scale, approx. 21 days
Excerpt: (§2) Plastic pots were partially filled with silt loam soil. […] At testing, the water level for all plantings was raised to 2 cm above the soil surface. Chemical treatments were formulated in a non-phytotoxic solvent and applied directly to the paddy water. Treated plants and controls were maintained in a greenhouse for approximately 21 days, after which all species were compared to controls and visually evaluated. […] A dash (-) response means no test result.

umbrella sedge = experiment: Test D paddy water application plant response rating 0 to 100; assay type: in vivo, Cyperus difformis; details: 0 to 100 scale, approx. 21 days
Excerpt: as §1

barnyardgrass [3] = experiment: Test E paddy water application plant response rating 0 to 100; assay type: in vivo, Echinochloa crus-galli; details: Flood, 0 to 100 scale, approx. 21 days
Excerpt: as §2

arrowhead = experiment: Test D paddy water application plant response rating 0 to 100; assay type: in vivo, Sagittaria spp.; details: 0 to 100 scale, approx. 21 days
Excerpt: as §1

duck salad = experiment: as above; assay type: in vivo, Heteranthera limosa; details: 0 to 100 scale, approx. 21 days
Excerpt: as §1

barnyardgrass [4] = experiment: as above; assay type: in vivo, Echinochloa crus-galli; details: 0 to 100 scale, approx. 21 days
Excerpt: as §1

In the case of C=C(Cl)COc1cc(-c2nn3c(c2Cl)CCCC3)c(F)cc1Cl [Compound 40], the “Waterchestnut plant response rating” value (waterchestnut; Rate 4 g/ha) is reported as 20, the “Waterchestnut plant response rating” value (waterchestnut; Rate 8 g/ha) is reported as 20 and the “Waterchestnut plant response rating” value (waterchestnut; Rate 16 g/ha) is reported as 30. For the same compound, the “Waterchestnut plant response rating” value (waterchestnut; Rate 32 g/ha) was 30, the “Waterchestnut plant response rating” value (waterchestnut; Rate 64 g/ha) was 60 and the “Japonica rice plant response rating” value (Japonica rice [1]; Rate 4 g/ha) was 10. The “Japonica rice plant response rating” value (Japonica rice [1]; Rate 8 g/ha) was 10, the “Japonica rice plant response rating” value (Japonica rice [1]; Rate 16 g/ha) was 15 and the “Japonica rice plant response rating” value (Japonica rice [1]; Rate 32 g/ha) was 20. The “Japonica rice plant response rating” value (Japonica rice [1]; Rate 64 g/ha) was 30, the “Japonica 1 plant response rating” value (Japonica rice [2]; Rate 8 g/ha) was 15 and the “Japonica 2 plant response rating” value (Japonica rice [2]; Rate 8 g/ha) was 10. For the same compound, the “Japonica 1 plant response rating” value (Japonica rice [2]; Rate 16 g/ha) was 10, the “Japonica 2 plant response rating” value (Japonica rice [2]; Rate 16 g/ha) was 15 and the “Japonica 1 plant response rating” value (Japonica rice [2]; Rate 32 g/ha) was 15. For the same compound, the “Japonica 2 plant response rating” value (Japonica rice [2]; Rate 32 g/ha) was 20, the “Japonica 1 plant response rating” value (Japonica rice [2]; Rate 64 g/ha) was 15 and the “Japonica 2 plant response rating” value (Japonica rice [2]; Rate 64 g/ha) was 15. For the same compound, the “Japonica 1 plant response rating” value (Japonica rice [2]; Rate 125 g/ha) was 20, the “Japonica 2 plant response rating” value (Japonica rice [2]; Rate 125 g/ha) was 20 and the “Umbrella sedge plant response rating” value (umbrella sedge; Rate 4 g/ha) was 0. The “Umbrella sedge plant response rating” value (umbrella sedge; Rate 8 g/ha) was 0, the “Umbrella sedge plant response rating” value (umbrella sedge; Rate 16 g/ha) was 15 and the “Umbrella sedge plant response rating” value (umbrella sedge; Rate 32 g/ha) was 30. For the same compound, the “Umbrella sedge plant response rating” value (umbrella sedge; Rate 64 g/ha) was 80, the “Barnyardgrass 2 plant response rating” value (barnyardgrass [3]; Rate 8 g/ha) was 15 and the “Barnyardgrass 3 plant response rating” value (barnyardgrass [3]; Rate 8 g/ha) was 25. The “Barnyardgrass 2 plant response rating” value (barnyardgrass [3]; Rate 16 g/ha) was 25, the “Barnyardgrass 3 plant response rating” value (barnyardgrass [3]; Rate 16 g/ha) was 20 and the “Barnyardgrass 2 plant response rating” value (barnyardgrass [3]; Rate 32 g/ha) was 45. For the same compound, the “Barnyardgrass 3 plant response rating” value (barnyardgrass [3]; Rate 32 g/ha) was 35, the “Barnyardgrass 2 plant response rating” value (barnyardgrass [3]; Rate 64 g/ha) was 60 and the “Barnyardgrass 3 plant response rating” value (barnyardgrass [3]; Rate 64 g/ha) was 40. For the same compound, the “Barnyardgrass 2 plant response rating” value (barnyardgrass [3]; Rate 125 g/ha) was 85, the “Barnyardgrass 3 plant response rating” value (barnyardgrass [3]; Rate 125 g/ha) was 50 and the “Arrowhead plant response rating” value (arrowhead; Rate 4 g/ha) was 0. The “Arrowhead plant response rating” value (arrowhead; Rate 8 g/ha) was 0, the “Arrowhead plant response rating” value (arrowhead; Rate 16 g/ha) was 0 and the “Arrowhead plant response rating” value (arrowhead; Rate 32 g/ha) was 0. The “Arrowhead plant response rating” value (arrowhead; Rate 64 g/ha) was 0, the “Duck salad plant response rating” value (duck salad; Rate 4 g/ha) was 0 and the “Duck salad plant response rating” value (duck salad; Rate 8 g/ha) was 0. For the same compound, the “Duck salad plant response rating” value (duck salad; Rate 16 g/ha) was 0, the “Duck salad plant response rating” value (duck salad; Rate 32 g/ha) was 0 and the “Duck salad plant response rating” value (duck salad; Rate 64 g/ha) was 45. For the same compound, the “Barnyardgrass 2 plant response rating” value (barnyardgrass [4]; Rate 4 g/ha) was 20, the “Barnyardgrass 2 plant response rating” value (barnyardgrass [4]; Rate 8 g/ha) was 65 and the “Barnyardgrass 2 plant response rating” value (barnyardgrass [4]; Rate 16 g/ha) was 70. For the same compound, the “Barnyardgrass 2 plant response rating” value (barnyardgrass [4]; Rate 32 g/ha) was 100 and the “Barnyardgrass 2 plant response rating” value (barnyardgrass [4]; Rate 64 g/ha) was 100.
In the case of COCN1C(=O)COc2cc(F)c(-c3nn4c(c3Cl)CCCC4)cc21 [Compound 55], the “Waterchestnut plant response rating” value (waterchestnut; Rate 4 g/ha) is reported as 0, the “Waterchestnut plant response rating” value (waterchestnut; Rate 8 g/ha) is reported as 0 and the “Waterchestnut plant response rating” value (waterchestnut; Rate 16 g/ha) is reported as 10. For the same compound, the “Waterchestnut plant response rating” value (waterchestnut; Rate 32 g/ha) was 15, the “Waterchestnut plant response rating” value (waterchestnut; Rate 64 g/ha) was 20 and the “Japonica rice plant response rating” value (Japonica rice [1]; Rate 4 g/ha) was 10. The “Japonica rice plant response rating” value (Japonica rice [1]; Rate 8 g/ha) was 10, the “Japonica rice plant response rating” value (Japonica rice [1]; Rate 16 g/ha) was 20 and the “Japonica rice plant response rating” value (Japonica rice [1]; Rate 32 g/ha) was 25. The “Japonica rice plant response rating” value (Japonica rice [1]; Rate 64 g/ha) was 25, the “Japonica 1 plant response rating” value (Japonica rice [2]; Rate 8 g/ha) was 25 and the “Japonica 2 plant response rating” value (Japonica rice [2]; Rate 8 g/ha) was 15. The “Japonica 1 plant response rating” value (Japonica rice [2]; Rate 16 g/ha) was 75, the “Japonica 2 plant response rating” value (Japonica rice [2]; Rate 16 g/ha) was 20 and the “Japonica 1 plant response rating” value (Japonica rice [2]; Rate 32 g/ha) was 85. The “Japonica 2 plant response rating” value (Japonica rice [2]; Rate 32 g/ha) was 25, the “Japonica 1 plant response rating” value (Japonica rice [2]; Rate 64 g/ha) was 98 and the “Japonica 2 plant response rating” value (Japonica rice [2]; Rate 64 g/ha) was 35. For the same compound, the “Umbrella sedge plant response rating” value (umbrella sedge; Rate 4 g/ha) was 0, the “Umbrella sedge plant response rating” value (umbrella sedge; Rate 8 g/ha) was 0 and the “Umbrella sedge plant response rating” value (umbrella sedge; Rate 16 g/ha) was 20. The “Umbrella sedge plant response rating” value (umbrella sedge; Rate 32 g/ha) was 80, the “Umbrella sedge plant response rating” value (umbrella sedge; Rate 64 g/ha) was 80 and the “Barnyardgrass 2 plant response rating” value (barnyardgrass [3]; Rate 8 g/ha) was 15. For the same compound, the “Barnyardgrass 3 plant response rating” value (barnyardgrass [3]; Rate 8 g/ha) was 20, the “Barnyardgrass 2 plant response rating” value (barnyardgrass [3]; Rate 16 g/ha) was 70 and the “Barnyardgrass 3 plant response rating” value (barnyardgrass [3]; Rate 16 g/ha) was 40. For the same compound, the “Barnyardgrass 2 plant response rating” value (barnyardgrass [3]; Rate 32 g/ha) was 80, the “Barnyardgrass 3 plant response rating” value (barnyardgrass [3]; Rate 32 g/ha) was 50 and the “Barnyardgrass 2 plant response rating” value (barnyardgrass [3]; Rate 64 g/ha) was 100. For the same compound, the “Barnyardgrass 3 plant response rating” value (barnyardgrass [3]; Rate 64 g/ha) was 75, the “Arrowhead plant response rating” value (arrowhead; Rate 4 g/ha) was 0 and the “Arrowhead plant response rating” value (arrowhead; Rate 8 g/ha) was 0. The “Arrowhead plant response rating” value (arrowhead; Rate 16 g/ha) was 20, the “Arrowhead plant response rating” value (arrowhead; Rate 32 g/ha) was 20 and the “Arrowhead plant response rating” value (arrowhead; Rate 64 g/ha) was 30. For the same compound, the “Duck salad plant response rating” value (duck salad; Rate 4 g/ha) was 0, the “Duck salad plant response rating” value (duck salad; Rate 8 g/ha) was 0 and the “Duck salad plant response rating” value (duck salad; Rate 16 g/ha) was 0. The “Duck salad plant response rating” value (duck salad; Rate 32 g/ha) was 0, the “Duck salad plant response rating” value (duck salad; Rate 64 g/ha) was 10 and the “Barnyardgrass 2 plant response rating” value (barnyardgrass [4]; Rate 4 g/ha) was 0. The “Barnyardgrass 2 plant response rating” value (barnyardgrass [4]; Rate 8 g/ha) was 0, the “Barnyardgrass 2 plant response rating” value (barnyardgrass [4]; Rate 16 g/ha) was 10 and the “Barnyardgrass 2 plant response rating” value (barnyardgrass [4]; Rate 32 g/ha) was 40. The “Barnyardgrass 2 plant response rating” value (barnyardgrass [4]; Rate 64 g/ha) was 100.
